Tests used:
[1] = tested on: mRNA expressed from the genes (A) to (D) in rat liver; experiment: Behavior of genes (mRNA expression level, oligo-DNA microarray) in rat liver after 28-day oral administration; format: in vivo; settings: rat liver, oral once daily 28 days; for Behavior of gene caused by administration of chemical substance, Gene No. 4846 / Behavior of gene caused by administration of chemical substance, Gene No. 4218 / Behavior of gene caused by administration of chemical substance, Gene No. 2026 / Behavior of gene caused by administration of chemical substance, Gene No. 6182 / Behavior of gene caused by administration of chemical substance, Gene No. 5600: (A); for Behavior of gene caused by administration of chemical substance, Gene No. 4846: Unigene Rn.144554, defined direction +; for Behavior of gene caused by administration of chemical substance, Gene No. 4218: Unigene Rn.167075, defined direction +, significant = 1.5 times or more or 1/1.5 or less of control; for Behavior of gene caused by administration of chemical substance, Gene No. 2026: Unigene Rn.167075, defined direction −; for Behavior of gene caused by administration of chemical substance, Gene No. 6182: Unigene Rn.5834, defined direction +; for Behavior of gene caused by administration of chemical substance, Gene No. 5600: Unigene Rn.9836, defined direction +; for Behavior of gene caused by administration of chemical substance, Gene No. 1494 / Behavior of gene caused by administration of chemical substance, Gene No. 2045 / Behavior of gene caused by administration of chemical substance, Gene No. 2203: (B); for Behavior of gene caused by administration of chemical substance, Gene No. 1494: Unigene Rn.1430, defined direction −; for Behavior of gene caused by administration of chemical substance, Gene No. 2045: Unigene Rn.19329, defined direction +; for Behavior of gene caused by administration of chemical substance, Gene No. 2203: Unigene Rn.21240, defined direction +; for Behavior of gene caused by administration of chemical substance, Gene No. 533 / Behavior of gene caused by administration of chemical substance, Gene No. 725 / Behavior of gene caused by administration of chemical substance, Gene No. 1163 / Behavior of gene caused by administration of chemical substance, Gene No. 4973 / Behavior of gene caused by administration of chemical substance, Gene No. 4095 / Behavior of gene caused by administration of chemical substance, Gene No. 1334 / Behavior of gene caused by administration of chemical substance, Gene No. 6620 / Behavior of gene caused by administration of chemical substance, Gene No. 6303 / Behavior of gene caused by administration of chemical substance, Gene No. 5878 / Behavior of gene caused by administration of chemical substance, Gene No. 1131 / Behavior of gene caused by administration of chemical substance, Gene No. 1562 / Behavior of gene caused by administration of chemical substance, Gene No. 1741 / Behavior of gene caused by administration of chemical substance, Gene No. 893 / Behavior of gene caused by administration of chemical substance, Gene No. 6026 / Behavior of gene caused by administration of chemical substance, Gene No. 154 / Behavior of gene caused by administration of chemical substance, Gene No. 1993 / Behavior of gene caused by administration of chemical substance, Gene No. 813 / Behavior of gene caused by administration of chemical substance, Gene No. 2494 / Behavior of gene caused by administration of chemical substance, Gene No. 2546 / Behavior of gene caused by administration of chemical substance, Gene No. 3776 / Behavior of gene caused by administration of chemical substance, Gene No. 3929 / Behavior of gene caused by administration of chemical substance, Gene No. 1119 / Behavior of gene caused by administration of chemical substance, Gene No. 6742 / Behavior of gene caused by administration of chemical substance, Gene No. 5634: (C); for Behavior of gene caused by administration of chemical substance, Gene No. 533: Unigene Rn.106184, defined direction +; for Behavior of gene caused by administration of chemical substance, Gene No. 725: Unigene Rn.108075, defined direction −; for Behavior of gene caused by administration of chemical substance, Gene No. 1163: Unigene Rn.11766, defined direction +; for Behavior of gene caused by administration of chemical substance, Gene No. 4973: Unigene Rn.118529, defined direction −; for Behavior of gene caused by administration of chemical substance, Gene No. 4095: Unigene Rn.119024, defined direction −; for Behavior of gene caused by administration of chemical substance, Gene No. 1334 / Behavior of gene caused by administration of chemical substance, Gene No. 6620: Unigene Rn.120914, defined direction +; for Behavior of gene caused by administration of chemical substance, Gene No. 6303: Unigene Rn.123063, defined direction −; for Behavior of gene caused by administration of chemical substance, Gene No. 5878: Unigene Rn.143213, defined direction −; for Behavior of gene caused by administration of chemical substance, Gene No. 1131: Unigene Rn.144946, defined direction −; for Behavior of gene caused by administration of chemical substance, Gene No. 1562: Unigene Rn.14744, defined direction −; for Behavior of gene caused by administration of chemical substance, Gene No. 1741: Unigene Rn.1647, defined direction −; for Behavior of gene caused by administration of chemical substance, Gene No. 893: Unigene Rn.164817, defined direction +; for Behavior of gene caused by administration of chemical substance, Gene No. 6026: Unigene Rn.167685, defined direction −; for Behavior of gene caused by administration of chemical substance, Gene No. 154: Unigene Rn.185941, defined direction −; for Behavior of gene caused by administration of chemical substance, Gene No. 1993: Unigene Rn.18728, defined direction −; for Behavior of gene caused by administration of chemical substance, Gene No. 813: Unigene Rn.201760, defined direction +; for Behavior of gene caused by administration of chemical substance, Gene No. 2494: Unigene Rn.23969, defined direction +; for Behavior of gene caused by administration of chemical substance, Gene No. 2546: Unigene Rn.24561, defined direction −; for Behavior of gene caused by administration of chemical substance, Gene No. 3776: Unigene Rn.43232, defined direction −; for Behavior of gene caused by administration of chemical substance, Gene No. 3929: Unigene Rn.4620, defined direction +; for Behavior of gene caused by administration of chemical substance, Gene No. 1119: Unigene Rn.9757, defined direction +; for Behavior of gene caused by administration of chemical substance, Gene No. 6742: Unigene Rn.9779, defined direction +; for Behavior of gene caused by administration of chemical substance, Gene No. 5634: Unigene Rn.9862, defined direction −; for Behavior of gene caused by administration of chemical substance, Gene No. 5726: (D), Unigene Rn.9939, defined direction −
Procedure, shortened: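 Liver mRNA measured by oligo-DNA microarray after 28 days of once-daily oral gavage in 5-week-old male F344 rats (n=4 per group), with vehicle controls given equal solvent volume. Significance threshold: 1.5-fold up or down versus control, with changes opposite in direction to other carcinogens counted as not significant.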

[2] = tested on: liver; settings: in vivo; cited from earlier work
[3] = tested on: rodent; settings: in vivo; cited from earlier work

SMILES | Behavior of gene caused by administration of chemical substance, Gene No. 4846 [1] | Behavior of gene caused by administration of chemical substance, Gene No. 4218 [1] | Behavior of gene caused by administration of chemical substance, Gene No. 2026 [1] | Behavior of gene caused by administration of chemical substance, Gene No. 6182 [1] | Behavior of gene caused by administration of chemical substance, Gene No. 5600 [1] | Behavior of gene caused by administration of chemical substance, Gene No. 1494 [1] | Behavior of gene caused by administration of chemical substance, Gene No. 2045 [1] | Behavior of gene caused by administration of chemical substance, Gene No. 2203 [1] | Behavior of gene caused by administration of chemical substance, Gene No. 533 [1] | Behavior of gene caused by administration of chemical substance, Gene No. 725 [1] | Behavior of gene caused by administration of chemical substance, Gene No. 1163 [1] | Behavior of gene caused by administration of chemical substance, Gene No. 4973 [1] | Behavior of gene caused by administration of chemical substance, Gene No. 4095 [1] | Behavior of gene caused by administration of chemical substance, Gene No. 1334 [1] | Behavior of gene caused by administration of chemical substance, Gene No. 6620 [1] | Behavior of gene caused by administration of chemical substance, Gene No. 6303 [1] | Behavior of gene caused by administration of chemical substance, Gene No. 5878 [1] | Behavior of gene caused by administration of chemical substance, Gene No. 1131 [1] | Behavior of gene caused by administration of chemical substance, Gene No. 1562 [1] | Behavior of gene caused by administration of chemical substance, Gene No. 1741 [1] | further results
CN(C)N=O [TS041, N-Nitrosodimethylamine] | + | + | − | + | + | − | − | − | − | − | − | − | − | − | − | − | − | − | − | − | Behavior of gene caused by administration of chemical substance, Gene No. 893 [1]: −; Behavior of gene caused by administration of chemical substance, Gene No. 6026 [1]: −; Behavior of gene caused by administration of chemical substance, Gene No. 154 [1]: −; Behavior of gene caused by administration of chemical substance, Gene No. 1993 [1]: −; Behavior of gene caused by administration of chemical substance, Gene No. 813 [1]: −; Behavior of gene caused by administration of chemical substance, Gene No. 2494 [1]: −; Behavior of gene caused by administration of chemical substance, Gene No. 2546 [1]: −; Behavior of gene caused by administration of chemical substance, Gene No. 3776 [1]: −; Behavior of gene caused by administration of chemical substance, Gene No. 3929 [1]: −; Behavior of gene caused by administration of chemical substance, Gene No. 1119 [1]: −; Behavior of gene caused by administration of chemical substance, Gene No. 6742 [1]: +; Behavior of gene caused by administration of chemical substance, Gene No. 5634 [1]: −; Behavior of gene caused by administration of chemical substance, Gene No. 5726 [1]: −; Liver carcinogenicity [2]: Cr+; Carcinogenicity [3]: C+
O=NN1CCCCC1 [TS042, N-Nitrosopiperidine] | + | + | + | + | + | + | − | − | + | − | − | − | − | − | − | + | − | + | + | − | Behavior of gene caused by administration of chemical substance, Gene No. 893 [1]: −; Behavior of gene caused by administration of chemical substance, Gene No. 6026 [1]: −; Behavior of gene caused by administration of chemical substance, Gene No. 154 [1]: −; Behavior of gene caused by administration of chemical substance, Gene No. 1993 [1]: +; Behavior of gene caused by administration of chemical substance, Gene No. 813 [1]: +; Behavior of gene caused by administration of chemical substance, Gene No. 2494 [1]: −; Behavior of gene caused by administration of chemical substance, Gene No. 2546 [1]: −; Behavior of gene caused by administration of chemical substance, Gene No. 3776 [1]: −; Behavior of gene caused by administration of chemical substance, Gene No. 3929 [1]: −; Behavior of gene caused by administration of chemical substance, Gene No. 1119 [1]: −; Behavior of gene caused by administration of chemical substance, Gene No. 6742 [1]: −; Behavior of gene caused by administration of chemical substance, Gene No. 5634 [1]: −; Behavior of gene caused by administration of chemical substance, Gene No. 5726 [1]: +; Liver carcinogenicity [2]: Cr+; Carcinogenicity [3]: C+
CC(=O)Nc1ccc2c(c1)Cc1ccccc1-2 [TS043, 2-Acetylaminofluorene] | + | + | + | + | + | − | − | − | − | + | + | + | + | − | − | + | − | − | + | − | Behavior of gene caused by administration of chemical substance, Gene No. 893 [1]: +; Behavior of gene caused by administration of chemical substance, Gene No. 6026 [1]: −; Behavior of gene caused by administration of chemical substance, Gene No. 154 [1]: −; Behavior of gene caused by administration of chemical substance, Gene No. 1993 [1]: +; Behavior of gene caused by administration of chemical substance, Gene No. 813 [1]: −; Behavior of gene caused by administration of chemical substance, Gene No. 2494 [1]: −; Behavior of gene caused by administration of chemical substance, Gene No. 2546 [1]: −; Behavior of gene caused by administration of chemical substance, Gene No. 3776 [1]: −; Behavior of gene caused by administration of chemical substance, Gene No. 3929 [1]: −; Behavior of gene caused by administration of chemical substance, Gene No. 1119 [1]: −; Behavior of gene caused by administration of chemical substance, Gene No. 6742 [1]: −; Behavior of gene caused by administration of chemical substance, Gene No. 5634 [1]: −; Behavior of gene caused by administration of chemical substance, Gene No. 5726 [1]: −; Liver carcinogenicity [2]: Cr+; Carcinogenicity [3]: C+

— US20110039721A1, “METHOD FOR PREDICTION ABOUT CARCINOGENICITY OF SUBSTANCE IN RODENT” (Chemicals Evaluation and Research Institute, priority 2007, published 2011)
